Key:
[1] = biological target: T1, human V2 receptor (Homo sapiens, UniProt P30518); assay: Cellular in vitro assay for determining vasopressin receptor activity, V2 receptor cell line (CHO, CRE-luciferase); format: cell-based; details: CHO cell line transfected with human V2 receptor; [Arg8]-vasopressin at EC50 concentration; read-out: IC50 hV2
T1 construct: expressed in transfected cells; host or cells: CHO K1 (ATCC) expressing firefly luciferase under a CRE-responsive promoter

[2] = biological target: T2, human V1a receptor (Homo sapiens, UniProt P37288); assay: Cellular in vitro assay for determining vasopressin receptor activity, V1a receptor cell line (CHO, aequorin luminescence); format: cell-based; details: for IC50: CHO cell line transfected with human V1a receptor, [Arg]-vasopressin at EC50 concentration, read-out: IC50 hV1a; for ratio IC50 hV2/hV1a: selectivity ratio IC50 hV2 / IC50 hV1a
T2 construct: expressed in transfected cells; host or cells: CHO K1 (ATCC), also stably transfected with a modified aequorin
Method in brief: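 IC50 from inhibition of [Arg]-vasopressin (EC50 concentration)-evoked aequorin luminescence in CHO K1 cells, with 10-min compound pretreatment.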

T2 sequence (P37288 whole entry): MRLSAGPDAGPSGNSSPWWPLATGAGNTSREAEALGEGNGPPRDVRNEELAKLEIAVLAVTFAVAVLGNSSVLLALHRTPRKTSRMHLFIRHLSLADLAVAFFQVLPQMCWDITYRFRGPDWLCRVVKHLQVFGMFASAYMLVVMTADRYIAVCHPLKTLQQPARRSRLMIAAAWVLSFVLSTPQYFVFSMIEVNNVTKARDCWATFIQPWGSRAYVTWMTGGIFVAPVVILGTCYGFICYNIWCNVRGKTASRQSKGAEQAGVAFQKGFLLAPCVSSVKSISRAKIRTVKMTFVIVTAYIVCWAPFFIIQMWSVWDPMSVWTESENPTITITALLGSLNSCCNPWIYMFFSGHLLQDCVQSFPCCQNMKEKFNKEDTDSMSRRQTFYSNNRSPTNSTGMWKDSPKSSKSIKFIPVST
T1 sequence (P30518 whole entry): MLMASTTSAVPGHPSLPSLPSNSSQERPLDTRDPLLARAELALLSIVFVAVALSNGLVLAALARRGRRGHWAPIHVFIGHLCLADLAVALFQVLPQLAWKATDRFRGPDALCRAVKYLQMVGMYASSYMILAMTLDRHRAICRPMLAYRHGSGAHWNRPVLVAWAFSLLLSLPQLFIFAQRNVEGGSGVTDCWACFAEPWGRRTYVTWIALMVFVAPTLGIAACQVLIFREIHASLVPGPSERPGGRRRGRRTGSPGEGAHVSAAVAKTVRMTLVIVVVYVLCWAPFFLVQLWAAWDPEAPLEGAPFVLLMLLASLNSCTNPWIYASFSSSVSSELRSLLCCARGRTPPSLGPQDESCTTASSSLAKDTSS

SMILES | IC50 [1] [nM] | IC50 [2] [nM] | ratio IC50 hV2/hV1a [2]
O=C(c1cccc(C(F)(F)F)c1-n1cnc(Cn2nc(-c3ccc(Cl)cc3)n(C[C@H](O)C(F)(F)F)c2=O)n1)N1CCS(=O)(=O)CC1 [Example 418, 5-(4-Chlorophenyl)-2-[(1-{2-[(1,1-dioxidothiomorpholin-4-yl)carbonyl]-6-(trifluoromethyl)phenyl}-1H-1,2,4-triazol-3-yl)methyl]-4-[(2S)-3,3,3-trifluoro-2-hydroxypropyl]-2,4-dihydro-3H-1,2,4-triazol-3-one] | 32000 | 635 | 50.4
O=C(NCC1CC1)c1cccc(C(F)(F)F)c1-n1cnc(Cn2nc(-c3ccc(Cl)cc3)n(C[C@H](O)C(F)(F)F)c2=O)n1 [Example 419, 2-[3-({3-(4-Chlorophenyl)-5-oxo-4-[(2S)-3,3,3-trifluoro-2-hydroxypropyl]-4,5-dihydro-1H-1,2,4-triazol-1-yl}methyl)-1H-1,2,4-triazol-1-yl]-N-(cyclopropylmethyl)-3-(trifluoromethyl)benzamide] | 1020 | 96 | 10.7
O=C(NCCC(F)(F)F)c1cccc(C(F)(F)F)c1-n1cnc(Cn2nc(-c3ccc(Cl)cc3)n(C[C@H](O)C(F)(F)F)c2=O)n1 [Example 421, 2-[3-({3-(4-Chlorophenyl)-5-oxo-4-[(2S)-3,3,3-trifluoro-2-hydroxypropyl]-4,5-dihydro-1H-1,2,4-triazol-1-yl}methyl)-1H-1,2,4-triazol-1-yl]-3-(trifluoromethyl)-N-(3,3,3-trifluoropropyl)benzamide] | 370 | 22 | 16.8
COC[C@@H]1CCCN1C(=O)c1cccc(C(F)(F)F)c1-n1cnc(Cn2nc(-c3ccc(Cl)cc3)n(C[C@H](O)C(F)(F)F)c2=O)n1 [Example 423, 5-(4-Chlorophenyl)-2-({1-[2-{[(2S)-2-(methoxymethyl)pyrrolidin-1-yl]carbonyl}-6-(trifluoromethyl)phenyl]-1H-1,2,4-triazol-3-yl}methyl)-4-[(2S)-3,3,3-trifluoro-2-hydroxypropyl]-2,4-dihydro-3H-1,2,4-triazol-3-one] | 18900 | 40 | 472.5
CC(C)(N)CNC(=O)c1cc(F)ccc1-n1cnc(Cn2nc(-c3ccc(Cl)cc3)n(C[C@H](O)C(F)(F)F)c2=O)n1 [Example 424, N-(2-Amino-2-methylpropyl)-2-[3-({3-(4-chlorophenyl)-5-oxo-4-[(2S)-3,3,3-trifluoro-2-hydroxypropyl]-4,5-dihydro-1H-1,2,4-triazol-1-yl}methyl)-1H-1,2,4-triazol-1-yl]-5-fluorobenzamide] | 2650 | 11.5 | 230.4
CNC(=O)c1cc(F)ccc1-n1cnc(Cn2nc(-c3ccc(Cl)cc3)n(C[C@H](O)C(F)(F)F)c2=O)n1 [Example 425, 2-[3-({3-(4-Chlorophenyl)-5-oxo-4-[(2S)-3,3,3-trifluoro-2-hydroxypropyl]-4,5-dihydro-1H-1,2,4-triazol-1-yl}methyl)-1H-1,2,4-triazol-1-yl]-5-fluoro-N-methylbenzamide] | 100 | 9.85 | 10.2
O=C(NCC(F)(F)F)c1cc(F)ccc1-n1cnc(Cn2nc(-c3ccc(Cl)cc3)n(C[C@H](O)C(F)(F)F)c2=O)n1 [Example 426, 2-[3-({3-(4-Chlorophenyl)-5-oxo-4-[(2S)-3,3,3-trifluoro-2-hydroxypropyl]-4,5-dihydro-1H-1,2,4-triazol-1-yl}methyl)-1H-1,2,4-triazol-1-yl]-5-fluoro-N-(2,2,2-trifluoroethyl)benzamide] | 125 | 19 | 6.6
O=C(NCC(F)(F)F)c1cc(Cl)ccc1-n1cnc(Cn2nc(-c3ccc(Cl)cc3)n(C[C@H](O)C(F)(F)F)c2=O)n1 [Example 427, 5-Chloro-2-[3-({3-(4-chlorophenyl)-5-oxo-4-[(2S)-3,3,3-trifluoro-2-hydroxypropyl]-4,5-dihydro-1H-1,2,4-triazol-1-yl}methyl)-1H-1,2,4-triazol-1-yl]-N-(2,2,2-trifluoroethyl)benzamide] | 72.7 | 21 | 3.5

Next, values leading:

IC50 [1] [nM] | IC50 [2] [nM] | ratio IC50 hV2/hV1a [2] | SMILES
1290 | 41 | 31.5 | O=C(NCC(F)(F)F)c1ncccc1-n1cnc(Cn2nc(-c3ccc(Cl)cc3)n(C[C@H](O)C(F)(F)F)c2=O)n1 [Example 428, 3-[3-({3-(4-Chlorophenyl)-5-oxo-4-[(2S)-3,3,3-trifluoro-2-hydroxypropyl]-4,5-dihydro-1H-1,2,4-triazol-1-yl}methyl)-1H-1,2,4-triazol-1-yl]-N-(2,2,2-trifluoroethyl)pyridine-2-carboxamide]
1100 | 16.5 | 66.7 | O=C(NC1CC1)c1ncccc1-n1cnc(Cn2nc(-c3ccc(Cl)cc3)n(C[C@H](O)C(F)(F)F)c2=O)n1 [Example 431, 3-[3-({3-(4-Chlorophenyl)-5-oxo-4-[(2S)-3,3,3-trifluoro-2-hydroxypropyl]-4,5-dihydro-1H-1,2,4-triazol-1-yl}methyl)-1H-1,2,4-triazol-1-yl]-N-cyclopropylpyridine-2-carboxamide]
945 | 44.5 | 21.2 | O=C(NCC1CC1)c1ncccc1-n1cnc(Cn2nc(-c3ccc(Cl)cc3)n(C[C@H](O)C(F)(F)F)c2=O)n1 [Example 432, 3-[3-({3-(4-Chlorophenyl)-5-oxo-4-[(2S)-3,3,3-trifluoro-2-hydroxypropyl]-4,5-dihydro-1H-1,2,4-triazol-1-yl}methyl)-1H-1,2,4-triazol-1-yl]-N-(cyclopropylmethyl)pyridine-2-carboxamide]
2200 | 71 | 31.0 | NC(=O)[C@H]1CC(F)(F)CN1C(=O)c1ncccc1-n1cnc(Cn2nc(-c3ccc(Cl)cc3)n(C[C@H](O)C(F)(F)F)c2=O)n1 [Example 433, 1-({3-[3-({3-(4-Chlorophenyl)-5-oxo-4-[(2S)-3,3,3-trifluoro-2-hydroxypropyl]-4,5-dihydro-1H-1,2,4-triazol-1-yl}methyl)-1H-1,2,4-triazol-1-yl]pyridin-2-yl}carbonyl)-4,4-difluoro-D-prolinamide]
2700 | 82 | 32.9 | NC(=O)[C@@H]1CC(F)(F)CN1C(=O)c1ncccc1-n1cnc(Cn2nc(-c3ccc(Cl)cc3)n(C[C@H](O)C(F)(F)F)c2=O)n1 [Example 434, 1-({3-[3-({3-(4-Chlorophenyl)-5-oxo-4-[(2S)-3,3,3-trifluoro-2-hydroxypropyl]-4,5-dihydro-1H-1,2,4-triazol-1-yl}methyl)-1H-1,2,4-triazol-1-yl]pyridin-2-yl}carbonyl)-4,4-difluoro-L-prolinamide]
3700 | 40.5 | 91.4 | O=C(c1ncccc1-n1cnc(Cn2nc(-c3ccc(Cl)cc3)n(C[C@H](O)C(F)(F)F)c2=O)n1)N1CCC(F)(F)C1 [Example 437, 5-(4-Chlorophenyl)-2-[(1-{2-[(3,3-difluoropyrrolidin-1-yl)carbonyl]pyridin-3-yl}-1H-1,2,4-triazol-3-yl)methyl]-4-[(2S)-3,3,3-trifluoro-2-hydroxypropyl]-2,4-dihydro-3H-1,2,4-triazol-3-one]
8900 | 86 | 103.5 | CC1(C)CN(C(=O)c2ncccc2-n2cnc(Cn3nc(-c4ccc(Cl)cc4)n(C[C@H](O)C(F)(F)F)c3=O)n2)CCO1 [Example 438, 5-(4-Chlorophenyl)-2-[(1-{2-[(2,2-dimethylmorpholin-4-yl)carbonyl]pyridin-3-yl}-1H-1,2,4-triazol-3-yl)methyl]-4-[(2S)-3,3,3-trifluoro-2-hydroxypropyl]-2,4-dihydro-3H-1,2,4-triazol-3-one]
1280 | 53.5 | 24.0 | O=C(NC1CC(F)(F)C1)c1ncccc1-n1cnc(Cn2nc(-c3ccc(Cl)cc3)n(C[C@H](O)C(F)(F)F)c2=O)n1 [Example 439, 3-[3-({3-(4-Chlorophenyl)-5-oxo-4-[(2S)-3,3,3-trifluoro-2-hydroxypropyl]-4,5-dihydro-1H-1,2,4-triazol-1-yl}methy)-1H-1,2,4-triazol-1-yl]-N-(3,3-difluorocyclobutyl)pyridine-2-carboxamide]
22500 | 220 | 102.3 | O=C1CN(C(=O)c2ncccc2-n2cnc(Cn3nc(-c4ccc(Cl)cc4)n(C[C@H](O)C(F)(F)F)c3=O)n2)CCN1 [Example 443, 4-({3-[3-({3-(4-Chlorophenyl)-5-oxo-4-[(2S)-3,3,3-trifluoro-2-hydroxypropyl]-4,5-dihydro-1H-1,2,4-triazol-1-yl}methyl)-1H-1,2,4-triazol-1-yl]pyridin-2-yl}carbonyl)piperazin-2-one]
3650 | 20 | 182.5 | O=C(c1ncccc1-n1cnc(Cn2nc(-c3ccc(Cl)cc3)n(C[C@H](O)C(F)(F)F)c2=O)n1)N1CCCCC1 [Example 445, 5-(4-Chlorophenyl)-2-({1-[2-(piperidin-1-ylcarbonyl)pyridin-3-yl]-1H-1,2,4-triazol-3-yl}methyl)-4-[(2S)-3,3,3-trifluoro-2-hydroxypropyl]-2,4-dihydro-3H-1,2,4-triazol-3-one]
21500 | 47 | 457.4 | O=C(c1ncccc1-n1cnc(Cn2nc(-c3ccc(Cl)cc3)n(C[C@H](O)C(F)(F)F)c2=O)n1)N1CCOCC1 [Example 446, 5-(4-Chlorophenyl)-2-({1-[2-(morpholin-4-ylcarbonyl)pyridin-3-yl]-1H-1,2,4-triazol-3-yl}methyl)-4-[(2S)-3,3,3-trifluoro-2-hydroxypropyl]-2,4-dihydro-3H-1,2,4-triazol-3-one]

Reference: US11173151B2, “Substituted triazole derivatives and uses thereof” (BAYER AKTIENGESELLSCHAFT, priority 2017, dated 2021)
